Assay results from patent US4282244A, “Optical isomers of 4-amino-N-(1-cyclohexyl-3-pyrrolidinyl)-N-methylbenzamide” (A. H. Robins Company, Inc., priority 1980, dated 1981).
Counter-ions that a name gives are not always drawn.

Columns and labels:
[1] = tested on: Metoclopramide-Induced Catalepsy; assay: Effects on Metoclopramide-Induced Catalepsy; assay type: in vivo, rat; conditions: Metoclopramide 40 mg/kg IP
Protocol: (§1) (+)-4-Amino-N-(1-cyclohexyl-3-pyrrolidinyl)-N-methylbenzamide is useful in reducing the cataleptic side effects of known therapeutically effective drugs such as chlorpromazine [2-chloro-10-(3-dimethylaminopropyl)phenothiazine] and metoclopramide (N-diethylaminoethyl 2-methoxy-4-amino-5-chlorophenylcarboxamide). The effectiveness is shown in Tables IV and V. In each test the rat was administered a 100% effective cataleptic dose of the test drug followed one hour later by an effective dose of (+)-4-amino-N-(1-cyclohexyl-3-pyrrolidinyl)-N-methylbenzamide.

[2] = tested on: Chlorpromazine-Induced Catalepsy; assay: Effects on Chlorpromazine-Induced Catalepsy; assay type: in vivo, rat; conditions: then (+)-isomer 25 mg/kg IP after one hour
Protocol: as §1

mouse = assay: acute toxicity (LD50), mouse; assay type: in vivo; conditions: fumarate salt, expressed as free base
Protocol: (§2) The acute toxicities of the ±-racemate, the (+)-isomer and the (-)-isomer were conducted with the fumarate salts and probit analysis (Finney, D. J., Statistical Methods in Biological Assay, Hafner Pub. Co., N.Y., 2nd. Ed., 1964) was employed for the statistical treatment of the mortality data.

[3] = cataleptic effects (Tedeschi et al.); assay type: in vivo, rat; conditions: in vivo, rat, fumarate salt, expressed as free base
Description: The procedure used for determing cataleptic effects of the fumarate salts was based on that of Tedeschi et al., Arch. Int. Pharmacodyn.

rat = assay: acute toxicity (LD50), rat; assay type: in vivo; conditions: fumarate salt, expressed as free base
Protocol: as §2

Question: What does the source list for `CN(C(=O)c1ccc(N)cc1)C1CCN(C2CCCCC2)C1` (single isomer, unassigned; (+)) [(+)-isomer, (+)-4-Amino-N-(1-cyclohexyl-3-pyrrolidinyl)-N-methyl benzamide Fumarate]?
Answer: Percent of Rats Cataleptic ([1]; then (+)-isomer 12.5 mg/kg IP after one hour, 0.5 h after initial treatment): 100%; Percent of Rats Cataleptic ([1]; then (+)-isomer 12.5 mg/kg IP after one hour, 1.0 h after initial treatment): 100%; Percent of Rats Cataleptic ([1]; then (+)-isomer 12.5 mg/kg IP after one hour, 1.5 h after initial treatment): 100%; Percent of Rats Cataleptic ([1]; then (+)-isomer 12.5 mg/kg IP after one hour, 2.0 h after initial treatment): 88%; Percent of Rats Cataleptic ([1]; then (+)-isomer 12.5 mg/kg IP after one hour, 3.0 h after initial treatment): 88%; Percent of Rats Cataleptic ([1]; then (+)-isomer 12.5 mg/kg IP after one hour, 4.0 h after initial treatment): 100%; Percent of Rats Cataleptic ([1]; then (+)-isomer 12.5 mg/kg IP after one hour, 5.0 h after initial treatment): 100%; Percent of Rats Cataleptic ([1]; then (+)-isomer 12.5 mg/kg IP after one hour, 6.0 h after initial treatment): 100%; Percent of Rats Cataleptic ([1]; then (+)-isomer 12.5 mg/kg IP after one hour, 7.0 h after initial treatment): 100%; Percent of Rats Cataleptic ([1]; then (+)-isomer 25 mg/kg IP after one hour, 0.5 h after initial treatment): 100%; Percent of Rats Cataleptic ([1]; then (+)-isomer 25 mg/kg IP after one hour, 1.0 h after initial treatment): 100%; Percent of Rats Cataleptic ([1]; then (+)-isomer 25 mg/kg IP after one hour, 1.5 h after initial treatment): 100%; Percent of Rats Cataleptic ([1]; then (+)-isomer 25 mg/kg IP after one hour, 2.0 h after initial treatment): 75%; Percent of Rats Cataleptic ([1]; then (+)-isomer 25 mg/kg IP after one hour, 3.0 h after initial treatment): 38%; Percent of Rats Cataleptic ([1]; then (+)-isomer 25 mg/kg IP after one hour, 4.0 h after initial treatment): 75%; Percent of Rats Cataleptic ([1]; then (+)-isomer 25 mg/kg IP after one hour, 5.0 h after initial treatment): 88%; Percent of Rats Cataleptic ([1]; then (+)-isomer 25 mg/kg IP after one hour, 6.0 h after initial treatment): 88%; Percent of Rats Cataleptic ([1]; then (+)-isomer 40 mg/kg IP after one hour, 0.5 h after initial treatment): 88%; Percent of Rats Cataleptic ([1]; then (+)-isomer 40 mg/kg IP after one hour, 1.0 h after initial treatment): 88%; Percent of Rats Cataleptic ([1]; then (+)-isomer 40 mg/kg IP after one hour, 1.5 h after initial treatment): 25%; Percent of Rats Cataleptic ([1]; then (+)-isomer 40 mg/kg IP after one hour, 2.0 h after initial treatment): 13%; Percent of Rats Cataleptic ([1]; then (+)-isomer 40 mg/kg IP after one hour, 3.0 h after initial treatment): 38%; Percent of Rats Cataleptic ([1]; then (+)-isomer 40 mg/kg IP after one hour, 4.0 h after initial treatment): 38%; Percent of Rats Cataleptic ([1]; then (+)-isomer 40 mg/kg IP after one hour, 5.0 h after initial treatment): 88%; Percent of Rats Cataleptic ([1]; then (+)-isomer 40 mg/kg IP after one hour, 6.0 h after initial treatment): 88%; Percent of Rats Cataleptic ([1]; then (+)-isomer 40 mg/kg IP after one hour, 7.0 h after initial treatment): 88%; Percent of Rats Cataleptic ([1]; then (+)-isomer 50 mg/kg IP after one hour, 0.5 h after initial treatment): 100%; Percent of Rats Cataleptic ([1]; then (+)-isomer 50 mg/kg IP after one hour, 1.0 h after initial treatment): 100%; Percent of Rats Cataleptic ([1]; then (+)-isomer 50 mg/kg IP after one hour, 1.5 h after initial treatment): 13%; Percent of Rats Cataleptic ([1]; then (+)-isomer 50 mg/kg IP after one hour, 2.0 h after initial treatment): 13%; Percent of Rats Cataleptic ([1]; then (+)-isomer 50 mg/kg IP after one hour, 3.0 h after initial treatment): 25%; Percent of Rats Cataleptic ([1]; then (+)-isomer 50 mg/kg IP after one hour, 4.0 h after initial treatment): 25%; Percent of Rats Cataleptic ([1]; then (+)-isomer 50 mg/kg IP after one hour, 5.0 h after initial treatment): 75%; Percent of Rats Cataleptic ([1]; then (+)-isomer 50 mg/kg IP after one hour, 6.0 h after initial treatment): 88%; Percent of Rats Cataleptic ([1]; then (+)-isomer 50 mg/kg IP after one hour, 7.0 h after initial treatment): 75%; Percent of Rats Cataleptic ([2]; Chlorpromazine 4 mg/kg IP, 0.5 h after initial treatment): 100%; Percent of Rats Cataleptic ([2]; Chlorpromazine 4 mg/kg IP, 1.0 h after initial treatment): 100%; Percent of Rats Cataleptic ([2]; Chlorpromazine 4 mg/kg IP, 1.5 h after initial treatment): 50%; Percent of Rats Cataleptic ([2]; Chlorpromazine 4 mg/kg IP, 2.0 h after initial treatment): 33%; Percent of Rats Cataleptic ([2]; Chlorpromazine 4 mg/kg IP, 3.0 h after initial treatment): 33%; Percent of Rats Cataleptic ([2]; Chlorpromazine 4 mg/kg IP, 4.0 h after initial treatment): 50%; Percent of Rats Cataleptic ([2]; Chlorpromazine 4 mg/kg IP, 5.0 h after initial treatment): 100%; Percent of Rats Cataleptic ([2]; Chlorpromazine 4 mg/kg IP, 6.0 h after initial treatment): 67%; Percent of Rats Cataleptic ([2]; saline 10 ml/kg IP, 0.5 h after initial treatment): 0%; Percent of Rats Cataleptic ([2]; saline 10 ml/kg IP, 1.0 h after initial treatment): 0%; Percent of Rats Cataleptic ([2]; saline 10 ml/kg IP, 1.5 h after initial treatment): 0%; Percent of Rats Cataleptic ([2]; saline 10 ml/kg IP, 2.0 h after initial treatment): 0%; Percent of Rats Cataleptic ([2]; saline 10 ml/kg IP, 3.0 h after initial treatment): 0%; Percent of Rats Cataleptic ([2]; saline 10 ml/kg IP, 4.0 h after initial treatment): 17%; Percent of Rats Cataleptic ([2]; saline 10 ml/kg IP, 5.0 h after initial treatment): 17%; Percent of Rats Cataleptic ([2]; saline 10 ml/kg IP, 6.0 h after initial treatment): 0%; LD50 (95% Confidence Limits) (mouse; I.P.): 126 (115-139) mg/kg; LD50 (95% Confidence Limits) (mouse; P.O.): 267 (233-313) mg/kg; NOAEL ([3]; IP): 100 mg/kg; NOAEL ([3]; PO): 200 mg/kg; LD50 (95% Confidence Limits) (rat; I.P.): 147 (134-222) mg/kg; LD50 (95% Confidence Limits) (rat; P.O.): 499 (322-593) mg/kg
